# Tests used:
# E. cloacae DSM 6234 = assay: Antibacterial activity: MIC/MBC, MIC with PAβN, disc-diffusion; type: cell-based, Enterobacter cloacae; conditions: E. cloacae DSM 6234
# Protocol: (§1) Direct antimicrobial activity was determined against the following standard strains: (1) Gram-positive cocci: methicillin-sensitive Staphylococcus aureus ATCC 6538P (MSSA), methicillin-resistant S. aureus subsp. aureus ATCC 43300 (MRSA), S. epidermidis ATCC 12228, Enterococcus faecium ATCC 6057, E. faecalis ATCC 29212, Bacillus subtilis ATCC 6633; (2) Gram-negative bacteria from Enterobacteriales order: Klebsiella pneumoniae ATCC 13883, Escherichia coli ATCC 25922, Enterobacter cloacae DSM 6234, Proteus mirabilis ATCC 12453, Serratia marcescens ATCC 13880; (3) Gram-negative non-fermentative rods: Acinetobacter baumannii ATCC 19606, Pseudomonas aeruginosa ATCC 27853, Stenotrophomonas maltophilia ATCC 12714, S. maltophilia ATCC 13637, Burkholderia cepacia ATCC 25416, Bordetella bronchiseptica ATCC 4617; (4) yeasts: Candida albicans ATCC 90028, C. krusei ATCC 6258, C. parapsilosis ATCC 22019, C. tropicalis (Castellani) Berkhout ATCC 750, C. tropicalis IBA 171, C. guilliermondii IBA 155, and Saccharomyces cerevisiae ATCC 9763. Moreover, 5 clinical strains of methicillin-resistant S. aureus were also included: NMI 664 K, NMI 1576 K, NMI 1712 K, NMI 1991 K, and NMI 2541 K. All strains were stored at −80 °C. Prior to testing, each bacterial strain was subcultured twice on tryptic soy agar TSA (bioMerieux) medium and yeast strains on Sabouraud dextrose agar (bioMerieux) for 24–48 h at 30 °C to ensure viability. The antimicrobial activity was evaluated as previously described[26] by the disc-diffusion method and the MIC determination assays according to the EUCAST (ref. [71] and [72]) and CLSI (ref. [53] and [73]) recommendations. Assessment of bactericidal (MBC) and fungicidal (MFC) activities was performed according to the CLSI recommendations.[54,74] […] The new benzosiloxaboroles were dissolved in DMSO (Sigma).
# (§2) Considering that the MDR efflux pumps often contribute to Gram-negative rod resistance, the MIC values of studied agents, with or without the pump inhibitor, PAβN (20 μg mL^−1) (Sigma), were determined.[75] The MIC was determined using Mueller–Hinton II broth medium (MHB) (Becton Dickinson) by the broth microdilution method, according to the CLSI guideliness.[53] To minimize the influence of PAβN on the destabilization of bacterial cell covers, the tests were conducted in the presence of 1 mM MgSO4 (Sigma).[76] At least a 4-fold reduction in the MIC value after the addition of PAβN was considered significant.[56,77]
# [1] = test system: B. bronchiseptica ATCC 4617; assay: Antibacterial activity: MIC/MBC, disc-diffusion; type: cell-based, Bordetella bronchiseptica; conditions: Bordetella bronchiseptica, ATCC4617, B. bronchiseptica ATCC 4617
# Protocol: as §1, §2
# P. aeruginosa ATCC 27853 = assay: Antibacterial activity: MIC/MBC, MIC with PAβN, disc-diffusion; type: cell-based; conditions: Pseudomonas aeruginosa, ATCC27853, P. aeruginosa ATCC 27853
# Protocol: as §1, §2
# K. pneumoniae ATCC 13883 = assay: as above; type: cell-based, Klebsiella pneumoniae; conditions: K. pneumoniae ATCC 13883
# Protocol: as §1, §2
# E. coli ATCC 25922 = assay: as above; type: cell-based, Escherichia coli; conditions: E. coli ATCC 25922
# Protocol: as §1, §2
# P. mirabilis ATCC 12453 = assay: as above; type: cell-based, Proteus mirabilis; conditions: P. mirabilis ATCC 12453
# Protocol: as §1, §2
# B. cepacia ATCC 25416 = assay: Antibacterial activity: MIC/MBC, disc-diffusion; type: cell-based, Burkholderia cepacia; conditions: B. cepacia ATCC 25416
# Protocol: as §1, §2
# [2] = test system: S. maltophilia ATCC 13637; assay: Antibacterial activity: MIC/MBC, MIC with PAβN, disc-diffusion; type: cell-based, Stenotrophomonas maltophilia; conditions: Stenotrophomonas maltophilia, ATCC13637, S. maltophilia ATCC 13637
# Protocol: as §1, §2
# [3] = test system: S. maltophilia ATCC 12714; assay: as above; type: cell-based, Stenotrophomonas maltophilia; conditions: Stenotrophomonas maltophilia, ATCC12714, S. maltophilia ATCC 12714
# Protocol: as §1, §2
# A. baumannii ATCC 19606 = assay: as above; type: cell-based, Acinetobacter baumannii; conditions: A. baumannii ATCC 19606
# Protocol: as §1, §2
# S. marcescens ATCC 13880 = assay: as above; type: cell-based, Serratia marcescens; conditions: S. marcescens ATCC 13880
# Protocol: as §1, §2
# C. albicans ATCC 90028 = assay: Antifungal activity: MIC/MFC, disc-diffusion; type: cell-based, Candida albicans
# Protocol: (§3) Direct antimicrobial activity was determined against the following standard strains: (1) Gram-positive cocci: methicillin-sensitive Staphylococcus aureus ATCC 6538P (MSSA), methicillin-resistant S. aureus subsp. aureus ATCC 43300 (MRSA), S. epidermidis ATCC 12228, Enterococcus faecium ATCC 6057, E. faecalis ATCC 29212, Bacillus subtilis ATCC 6633; (2) Gram-negative bacteria from Enterobacteriales order: Klebsiella pneumoniae ATCC 13883, Escherichia coli ATCC 25922, Enterobacter cloacae DSM 6234, Proteus mirabilis ATCC 12453, Serratia marcescens ATCC 13880; (3) Gram-negative non-fermentative rods: Acinetobacter baumannii ATCC 19606, Pseudomonas aeruginosa ATCC 27853, Stenotrophomonas maltophilia ATCC 12714, S. maltophilia ATCC 13637, Burkholderia cepacia ATCC 25416, Bordetella bronchiseptica ATCC 4617; (4) yeasts: Candida albicans ATCC 90028, C. krusei ATCC 6258, C. parapsilosis ATCC 22019, C. tropicalis (Castellani) Berkhout ATCC 750, C. tropicalis IBA 171, C. guilliermondii IBA 155, and Saccharomyces cerevisiae ATCC 9763. Moreover, 5 clinical strains of methicillin-resistant S. aureus were also included: NMI 664 K, NMI 1576 K, NMI 1712 K, NMI 1991 K, and NMI 2541 K. All strains were stored at −80 °C. Prior to testing, each bacterial strain was subcultured twice on tryptic soy agar TSA (bioMerieux) medium and yeast strains on Sabouraud dextrose agar (bioMerieux) for 24–48 h at 30 °C to ensure viability. The antimicrobial activity was evaluated as previously described[26] by the disc-diffusion method and the MIC determination assays according to the EUCAST (ref. [71] and [72]) and CLSI (ref. [53] and [73]) recommendations. Assessment of bactericidal (MBC) and fungicidal (MFC) activities was performed according to the CLSI recommendations.[54,74] The following reference agents were used: fluconazole (in the case of fungi), linezolid (for Gram-positive bacteria), and nitrofurantoin (for Gram-negative rods). The new benzosiloxaboroles were dissolved in DMSO (Sigma).
# C. krusei ATCC 6258 = assay: Antifungal activity: MIC/MFC, disc-diffusion; type: cell-based
# Protocol: as §1
# [4] = test system: C. parapsilosis ATCC 22019; assay: Antifungal activity: MIC/MFC, disc-diffusion; type: cell-based
# Protocol: as §3
# C. tropicalis IBA 171 = assay: Antifungal activity: MIC/MFC, disc-diffusion; type: cell-based
# Protocol: as §3
# C. tropicalis ATCC 750 = assay: Antifungal activity: MIC/MFC, disc-diffusion; type: cell-based
# Protocol: as §3
# [5] = test system: C. guilliermondii IBA 155; assay: Antifungal activity: MIC/MFC, disc-diffusion; type: cell-based
# Protocol: as §3
# S. cerevisiae ATCC 9763 = assay: Antifungal activity: MIC/MFC, disc-diffusion; type: cell-based, Saccharomyces cerevisiae
# Protocol: as §3
# [6] = test system: Human normal lung fibroblasts MRC-5; assay: MTT-based viability (cytotoxicity) assay; conditions: MRC-5, MTT, 48 h
# Protocol: To evaluate the cytotoxic effect of the tested compounds, an MTT-based assay was performed. […] Moreover, based on available IC50 and MIC (for standard and clinical S. aureus MRSA strains) values, the selectivity index (SI) was calculated for several compounds as the IC50/MIC ratio (Table 5).[60]
# MRC-5 pd30 human fibroblasts (ECACC) were cultured in MEME, Minimum Essential Medium Eagle (Merck), supplemented with 10% fetal bovine serum (Merck), 2 mM L-glutamine, antibiotics (100 U mL^−1 penicillin, 100 μg mL^−1 streptomycin, Merck) and 1% non-essential amino acids (Merck). Cells were grown in 75 cm^2 cell culture flasks (Sarstedt), in a humidified atmosphere of CO2/air (5/95%) at 37 °C. MTT-based viability assay was conducted as described previously.[26] Optical densities were measured at 570 nm using a BioTek microplate reader. All measurements were carried out in three replicates and the results expressed as a percent of viable cells versus control cells. […] The selectivity index (SI) was calculated as [drawing 30] , in accordance with previously described protocols.[60]
# [7] = (-) = zone not observed, paper discs 9 mm
smiles,measurement,setting,value
"O=C1CN(/N=C/c2ccc([N+](=O)[O-])o2)C(=O)N1 [NF, nitrofurantoin, reference compound]",diameter of inhibition zone,E. cloacae DSM 6234; [7],17 mm
same,MBC,"E. cloacae DSM 6234; Enterobacter cloacae, DSM6234",32 µg/mL
same,MIC,"E. cloacae DSM 6234; Enterobacter cloacae, DSM6234, read-out: MIC",32 µg/mL
same,MBC,[1],128 µg/mL
same,MIC,[1]; read-out: MIC,64 µg/mL
same,MBC,P. aeruginosa ATCC 27853,> 128 µg/mL
same,MIC,P. aeruginosa ATCC 27853; read-out: MIC,> 128 µg/mL
same,diameter of inhibition zone,K. pneumoniae ATCC 13883; [7],23 mm
same,MBC,"K. pneumoniae ATCC 13883; Klebsiella pneumoniae, ATCC13883",32 µg/mL
same,MIC,"K. pneumoniae ATCC 13883; Klebsiella pneumoniae, ATCC13883, read-out: MIC",32 µg/mL
same,diameter of inhibition zone,E. coli ATCC 25922; [7],24 mm
same,MBC,"E. coli ATCC 25922; Escherichia coli, ATCC25922",8 µg/mL
same,MIC,"E. coli ATCC 25922; Escherichia coli, ATCC25922, read-out: MIC",8 µg/mL
same,diameter of inhibition zone,P. mirabilis ATCC 12453; [7],9 mm
same,MBC,"P. mirabilis ATCC 12453; Proteus mirabilis, ATCC12453",> 128 µg/mL
same,MIC,"P. mirabilis ATCC 12453; Proteus mirabilis, ATCC12453, read-out: MIC",128 µg/mL
same,diameter of inhibition zone,B. cepacia ATCC 25416; [7],12 mm
same,MBC,"B. cepacia ATCC 25416; Burkholderia cepacia, ATCC25416",32 µg/mL
same,MIC,"B. cepacia ATCC 25416; Burkholderia cepacia, ATCC25416, read-out: MIC",32 µg/mL
same,MBC,[2],> 128 µg/mL
same,MIC,[2]; read-out: MIC,128 µg/mL
same,MBC,[3],> 128 µg/mL
same,MIC,[3]; read-out: MIC,128 µg/mL
same,diameter of inhibition zone,A. baumannii ATCC 19606; [7],9 mm
same,MBC,"A. baumannii ATCC 19606; Acinetobacter baumannii, ATCC19606",128 µg/mL
same,MIC,"A. baumannii ATCC 19606; Acinetobacter baumannii, ATCC19606, read-out: MIC",64 µg/mL
same,diameter of inhibition zone,S. marcescens ATCC 13880; [7],12 mm
same,MBC,"S. marcescens ATCC 13880; Serratia marcescens, ATCC13880",> 128 µg/mL
same,MIC,"S. marcescens ATCC 13880; Serratia marcescens, ATCC13880, read-out: MIC",128 µg/mL
"OC(Cn1cncn1)(Cn1cncn1)c1ccc(F)cc1F [FL, fluconazole, reference compound]",diameter of inhibition zone,"C. albicans ATCC 90028; C. albicans ATCC 90028, (-) = zone not observed, paper discs 9 mm",43 mm
same,MIC,"C. albicans ATCC 90028; Candida albicans, ATCC90028, read-out: MIC",1 µg/mL
same,diameter of inhibition zone,"C. krusei ATCC 6258; C. krusei ATCC 6258, (-) = zone not observed, paper discs 9 mm",16 mm
same,MIC,"C. krusei ATCC 6258; Pichia kudriavzevii, ATCC6258, read-out: MIC",64 µg/mL
same,diameter of inhibition zone,"[4]; C. parapsilosis ATCC 22019, (-) = zone not observed, paper discs 9 mm",32 mm
same,MIC,"[4]; Lodderomyces parapsilosis, ATCC22019, read-out: MIC",2 µg/mL
same,diameter of inhibition zone,"C. tropicalis IBA 171; C. tropicalis IBA 171, (-) = zone not observed, paper discs 9 mm",39 mm
same,MIC,"C. tropicalis IBA 171; Candida tropicalis, IBA171, read-out: MIC",0.38 µg/mL
same,diameter of inhibition zone,"C. tropicalis ATCC 750; C. tropicalis ATCC 750, (-) = zone not observed, paper discs 9 mm",40 mm
same,MIC,"C. tropicalis ATCC 750; Candida tropicalis, ATCC750, read-out: MIC",0.38 µg/mL
same,diameter of inhibition zone,"[5]; C. guilliermondii IBA 155, (-) = zone not observed, paper discs 9 mm",40 mm
same,MIC,"[5]; Meyerozyma guilliermondii, IBA155, read-out: MIC",0.75 µg/mL
same,diameter of inhibition zone,"S. cerevisiae ATCC 9763; S. cerevisiae ATCC 9763, (-) = zone not observed, paper discs 9 mm",12 mm
same,MIC,"S. cerevisiae ATCC 9763; Saccharomyces cerevisiae, ATCC9763, read-out: MIC",16 µg/mL
"N.N.[Cl][Pt][Cl] [Cisplatin, reference compound]",IC50,[6],1.9 µg/mL

# Reference: article PMC11110727, “Exploiting thiol-functionalized benzosiloxaboroles for achieving diverse substitution patterns – synthesis, characterization and biological evaluation of promising antibacterial agents” (RSC Medicinal Chemistry, 2024)
